Measured values taken from US8859580B2 (Boehringer Ingelheim International GmbH, priority 2007, dated 2014).

biological target: T1, 11β-HSD1 (Homo sapiens, UniProt P28845); experiment: In vitro inhibition of 11β-HSD1, HTRF detection of cortisol generated from cortisone by human liver microsomes; type: biochemical; settings: 11β-HSD IC50 (nM), 1 hour at 37° C., pH 6.0, NADPH 200 μM, cortisone 80 nM, inhibition relative to carbenoxolone signal
T1 construct: detecting cortisol generated from cortisterone by human liver microsomes; from tissue; host or cells: human liver microsomes
Method in brief: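 Inhibition expressed against the carbenoxolone signal and fitted to IC50 curves. Readout: HTRF competition between microsomal cortisol and XL665-labelled cortisol for Eu-cryptate anti-cortisol antibody (typically 2 h), with emission ratio 665/615 calibrated to cortisol concentration.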

T1 sequence (P28845 whole entry): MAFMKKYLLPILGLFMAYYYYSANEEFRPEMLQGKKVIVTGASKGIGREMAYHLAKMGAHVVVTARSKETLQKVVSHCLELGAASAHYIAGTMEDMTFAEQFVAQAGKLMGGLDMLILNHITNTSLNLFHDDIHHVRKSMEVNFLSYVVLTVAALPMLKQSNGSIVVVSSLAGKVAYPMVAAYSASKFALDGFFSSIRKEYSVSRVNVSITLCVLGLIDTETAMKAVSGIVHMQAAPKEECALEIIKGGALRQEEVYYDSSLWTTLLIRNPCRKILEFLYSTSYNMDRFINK

Question: With `Cn1nc(C(=O)N2CC[C@@]3(C)c4cccc(O)c4C[C@@H]2C3(C)C)c2ccccc21` [Example 194, [(2R,6S)-10-Hydroxy-6,11,11-trimethyl-1,2,5,6-tetrahydro-4H-2,6-methano-benzo[d]azocin-3-yl]-(1-methyl-1H-indazol-3-yl)-methanone] as the molecule, how does the IC50 read?
Answer: 642 nM

Question: `CC1(C)[C@H]2Cc3c(F)cccc3[C@]1(C)CCN2C(=O)c1ccc2nc[nH]c2c1` [Example 140, (3H-Benzoimidazol-5-yl)-[(2R,6S)-10-fluoro-6,11,11-trimethyl-1,2,5,6-tetrahydro-4H-2,6-methano-benzo[d]azocin-3-yl]-methanone] was tested. Which IC50 did it give?
Answer: 48 nM

Question: Which IC50 does the source give for `CNC(=O)c1ccc(C(=O)N2CC[C@@]3(C)c4cccc(O)c4C[C@@H]2C3(C)C)cc1` [Example 36, 4-[(2R,6S)-10-Hydroxy-6,11,11-trimethyl-1,2,5,6-tetrahydro-4H-2,6-methano-benzo[d]azocine-3-carbonyl]-N-methyl-benzamide] here?
Answer: 3660 nM

Question: How did the IC50 turn out when `CC1(C)[C@H]2Cc3c(O)cccc3[C@]1(C)CCN2C(=O)c1ccc(CN2CCC(O)CC2)cc1` [Example 190, [4-(4-Hydroxy-piperidin-1-ylmethyl)-phenyl]-[(2R,6S)-10-hydroxy-6,11,11-trimethyl-1,2,5,6-tetrahydro-4H-2,6-methano-benzo[d]azocin-3-yl]-methanone] was run?
Answer: 1650 nM

Question: `CC12CCN(C(=O)c3ccc4nc[nH]c4c3)C(Cc3cccc(O)c31)C2(C)C` (stereo not drawn) [Example 78, (3H-Benzoimidazol-5-yl)-(7-hydroxy-6,11,11-trimethyl-1,2,5,6-tetrahydro-4H-2,6-methano-benzo[d]azocin-3-yl)-methanone] was tested. Which IC50 did it give?
Answer: 67 nM

Question: How did the IC50 turn out when `COc1cc2c(cc1C)C[C@@H]1N(C(=O)c3ccc4nc[nH]c4c3)CC[C@@]2(C)C1(C)C` (stereo in doubt) [Example 61, (3H-Benzoimidazol-5-yl)-[(2S,6R)-8-methoxy-6,9,11,11-tetramethyl-1,2,5,6-tetrahydro-4H-2,6-methano-benzo[d]azocin-3-yl]-methanone] was run?
Answer: 798 nM

Question: For `Cn1cnc2cc3c(cc21)C[C@H]1N(C(=O)c2ccc4nc[nH]c4c2)CC[C@]3(C)C1(C)C` [Example 240, (3H-Benzoimidazol-5-yl)-[(6R,10S)-5,6,7,8,9,10-hexahydro-3,10,12,12-tetramethyl-6,10-methano-imidazo[4,5-i][3]benzazocin-7-yl]-methanone], which IC50 is on record?
Answer: 51 nM

Question: How did the IC50 turn out when `CCNC(=O)c1ccc(C(=O)N2CC[C@@]3(C)c4cccc(O)c4C[C@@H]2C3(C)C)cc1` [Example 138, N-Ethyl-4-[(2R,6S)-10-hydroxy-6,11,11-trimethyl-1,2,5,6-tetrahydro-4H-2,6-methano-benzo[d]azocine-3-carbonyl]-benzamide] was run?
Answer: 2810 nM

Question: Which IC50 does the source give for `Cc1cnc2cc3c(cc2n1)[C@]1(C)CCN(C(=O)c2ccc4nc[nH]c4c2)[C@H](C3)C1(C)C` [Example 255, (3H-Benzoimidazol-5-yl)-[(7R,11S)-6,7,8,9,10,11-hexahydro-2,11,13,13-tetramethyl-7,11-methano-pyrazino[2,3-i][3]benzazocin-8-yl]-methanone] here?
Answer: 742 nM

Question: With `CC1(C)[C@H]2Cc3ccccc3[C@]1(C)CCN2C(=O)c1ccc2c(c1)C(O)CC2` (stereo partly drawn) [Example 291, (3-Hydroxy-indan-5-yl)-[(2R,6S)-6,11,11-trimethyl-1,2,5,6-tetrahydro-4H-2,6-methano-benzo[d]azocin-3-yl]-methanone] as the molecule, how does the IC50 read?
Answer: 183 nM

Question: With `CC1(C)[C@H]2Cc3c(O)cccc3[C@]1(C)CCN2C(=O)c1n[nH]c2ccccc12` [Example 192, [(2R,6S)-10-Hydroxy-6,11,11-trimethyl-1,2,5,6-tetrahydro-4H-2,6-methano-benzo[d]azocin-3-yl]-(1H-indazol-3-yl)-methanone] as the molecule, how does the IC50 read?
Answer: 434 nM

Question: How did the IC50 turn out when `COc1cccc2[nH]cc(C(=O)N3CC[C@@]4(C)c5cccc(O)c5C[C@@H]3C4(C)C)c12` [Example 195, [(2R,6S)-10-Hydroxy-6,11,11-trimethyl-1,2,5,6-tetrahydro-4H-2,6-methano-benzo[d]azocin-3-yl]-(4-methoxy-1H-indol-3-yl)-methanone] was run?
Answer: 2480 nM

Question: With `COc1ccc2c(c1)C[C@@H]1N(C(=O)c3ccc4nc[nH]c4c3)CC[C@@]2(C)C1(C)C` [Example 147, (3H-Benzoimidazol-5-yl)-[(2S,6R)-9-methoxy-6,11,11-trimethyl-1,2,5,6-tetrahydro-4H-2,6-methano-benzo[d]azocin-3-yl]-methanone] as the molecule, how does the IC50 read?
Answer: 1010 nM

Question: With `CC1(C)[C@H]2Cc3c(O)cccc3[C@]1(C)CCN2C(=O)c1cc2ccccc2[nH]1` [Example 116, [(2R,6S)-10-Hydroxy-6,11,11-trimethyl-1,2,5,6-tetrahydro-4H-2,6-methano-benzo[d]azocin-3-yl]-(1H-indol-2-yl)-methanone] as the molecule, how does the IC50 read?
Answer: 3850 nM

Question: `CC1(O)CCc2ccc(C(=O)N3CC[C@@]4(C)c5ccccc5C[C@@H]3C4(C)C)cc21` (stereo partly drawn) [Example 292, (3-Hydroxy-3-methyl-indan-5-yl)-[(2R,6S)-6,11,11-trimethyl-1,2,5,6-tetrahydro-4H-2,6-methano-benzo[d]azocin-3-yl]-methanone] was tested. Which IC50 did it give?
Answer: 502 nM

Question: With `C[C@@H]1CN(C(=O)c2ccc3nc[nH]c3c2)[C@@H]2Cc3ccccc3[C@@]1(C)C2` (racemic) [Example 294, (3H-Benzoimidazol-5-yl)-(5,6-dimethyl-1,2,5,6-tetrahydro-4H-2,6-methano-benzo[d]azocin-3-yl)-methanone] as the molecule, how does the IC50 read?
Answer: 146 nM

Question: Which IC50 does the source give for `CC1(C)[C@H]2Cc3c(O)cccc3[C@]1(C)CCN2C(=O)c1ccc(CN2CCOCC2=O)cc1` [Example 207, 4-[(2R,6S)-4-(10-Hydroxy-6,11,11-trimethyl 1,2,5,6-tetrahydro-4H-2,6-methano-benzo[d]azocine-3-carbonyl)-benzyl]-morpholin-3-one] here?
Answer: 224 nM

Question: With `CC12CCN(C(=O)c3ccc4nc[nH]c4c3)C(Cc3cc(C(=O)O)ccc31)C2(C)C` (stereo not drawn) [Example 154, 3-(3H-Benzoimidazole-5-carbonyl)-6,11,11-trimethyl-1,2,3,4,5,6-hexahydro-2,6-methano-benzo[d]azocine-9-carboxylic acid] as the molecule, how does the IC50 read?
Answer: 1660 nM

Question: With `Cc1ccccc1C(=O)N1CC[C@@]2(C)c3cccc(O)c3C[C@@H]1C2(C)C` [Example 5, [(2R,6S)-10-Hydroxy-6,11,11-trimethyl-1,2,5,6-tetrahydro-4H-2,6-methano-benzo[d]azocin-3-yl]-o-tolyl-methanone] as the molecule, how does the IC50 read?
Answer: 3100 nM

Question: For `C[C@@H]1[C@H]2Cc3cc(C#N)ccc3[C@]1(C)CCN2C(=O)c1ccc2nc[nH]c2c1` [Example 227, (2R,6R,11S)-3-(3H-Benzoimidazole-5-carbonyl)-6,11-dimethyl-1,2,3,4,5,6-hexahydro-2,6-methano-benzo[d]azocine-9-carbonitrile], which IC50 is on record?
Answer: 25 nM

Question: Which IC50 does the source give for `COc1cc2c(cc1C)[C@@]1(C)CCN(C(=O)c3ccc4nc[nH]c4c3)[C@@H](C2)C1(C)C` (stereo in doubt) [Example 64, (3H-Benzoimidazol-5-yl)-[(2S,6R)-9-methoxy-6,8,11,11-tetramethyl-1,2,5,6-tetrahydro-4H-2,6-methano-benzo[d]azocin-3-yl]-methanone] here?
Answer: 753 nM

Question: `C[C@@H]1[C@H]2Cc3ccc(-c4nnn[nH]4)cc3[C@]1(C)CCN2C(=O)c1ccc2nc[nH]c2c1` [Example 228, (2R,6R,11S)-(3H-Benzoimidazol-5-yl)-[6,11-dimethyl-8-(1H-tetrazol-5-yl)-1,2,5,6-tetrahydro-4H-2,6-methano-benzo[d]azocin-3-yl]-methanone] was tested. Which IC50 did it give?
Answer: 236 nM

Question: For `CC1(C)C2Cc3ccc(O)cc3C1(O)CCN2C(=O)c1ccc2nc[nH]c2c1` (stereo not drawn) [Example 56, (3H-Benzoimidazol-5-yl)-(6,8-dihydroxy-11,11-dimethyl-1,2,5,6-tetrahydro-4H-4,6-methano-benzo[d]azocin-3-vl)-methanone], which IC50 is on record?
Answer: 725 nM

Question: Which IC50 does the source give for `C[C@@H]1[C@H]2Cc3ccc(-c4ccn(C)c(=O)c4)cc3[C@]1(C)CCN2C(=O)c1ccc2nc[nH]c2c1` [Example 279, (3H-Benzoimidazol-5-yl)-[(2R,6R,11S)-6,11-dimethyl-8-(1-methyl-2-oxo-1,2-dihydro-pyridin-4-yl)-1,2,5,6-tetrahydro-4H-2,6-methano-benzo[d]azocin-3-yl]-methanone] here?
Answer: 52 nM

Question: How did the IC50 turn out when `CC1(C)[C@H]2Cc3c(C(=O)O)cccc3[C@]1(C)CCN2C(=O)c1ccc2nc[nH]c2c1` [Example 152, (2R,6S)-3-(3H-Benzoimidazole-5-carbonyl)-6,11,11-trimethyl-1,2,3,4,5,6-hexahydro-2,6-methano-benzo[d]azocine-10-carboxylic acid] was run?
Answer: 4670 nM

Question: For `Cc1cc2nc[nH]c2cc1C(=O)N1CC[C@@]2(C)c3cccc(O)c3C[C@@H]1C2(C)C` [Example 210, [(2R,6S)-10-Hydroxy-6,11,11-trimethyl-1,2,5,6-tetrahydro-4H-2,6-methano-benzo[d]azocin-3-yl]-(6-methyl-3H-benzoimidazol-5-yl)-methanone], which IC50 is on record?
Answer: 68 nM

Question: Which IC50 does the source give for `CC1(C)[C@H]2Cc3c(O)cccc3[C@]1(C)CCN2C(=O)c1ccc2[nH]ccc2c1` [Example 49, [(2R,6S)-10-Hydroxy-6,11,11-trimethyl-1,2,5,6-tetrahydro-4H-2,6-methano-benzo[d]azocin-3-yl]-(1H-indol-5-yl)-methanone] here?
Answer: 168 nM

Question: How did the IC50 turn out when `CC1(C)[C@H]2Cc3cc4oc(C5CC5)nc4cc3[C@]1(C)CCN2C(=O)c1ccc2nc[nH]c2c1` [Example 302, (3H-Benzoimidazol-5-yl)-[(6R,10S)-2-cyclopropyl-5,6,7,8,9,10-hexahydro-10,12,12-trimethyl-6,10-methano-oxazolo[4,5-i][3]benzazocin-7-yl]-methanone] was run?
Answer: 35 nM

Question: With `CC1(C)[C@H]2Cc3ccc(S(C)(=O)=O)cc3[C@]1(C)CCN2C(=O)c1ccc2nc[nH]c2c1` [Example 233, (3H-Benzoimidazol-5-yl)-[(2R,6S)-8-methanesulfonyl-6,11,11-trimethyl-1,2,5,6-tetrahydro-4H-2,6-methano-benzo[d]azocin-3-yl)-methanone] as the molecule, how does the IC50 read?
Answer: 144 nM

Question: How did the IC50 turn out when `CC1(C)[C@H]2Cc3ccccc3[C@]1(C)CCN2C(=O)c1ccc2ccccc2c1` [Example 282, Naphthalen-2-yl-[(2R,6S)-6,11,11-trimethyl-1,2,5,6-tetrahydro-4H-2,6-methano-benzo[d]azocin-3-yl]-methanone] was run?
Answer: 409 nM
